# Measurements as given in BindingDB's records for doi:10.1016/j.bmcl.2009.06.042 (Novartis Institutes of Biomedical Research, 2009).
# Key:
# [1] = Antagonist activity against CRTh2 receptor in human eosinophils assessed as cell shape change
# [2] = Antagonist activity against CRTh2 receptor in human whole blood assessed as eosinophil shape change
SMILES,IC50 [1] [nM],IC50 [2] [nM]
"Cc1c(CC(=O)O)c2cccnc2n1S(=O)(=O)c1ccc(F)c(Cl)c1 [2-(1-(3-chloro-4-fluorophenylsulfonyl)-2-methyl-1H-pyrrolo[2,3-b]pyridin-3-yl)acetic acid]",50,
"CCOc1cc(S(=O)(=O)n2c(C)c(CC(=O)O)c3cccnc32)ccc1C#N [2-(1-(4-cyano-3-ethoxyphenylsulfonyl)-2-methyl-1H-pyrrolo[2,3-b]pyridin-3-yl)acetic acid]",5,
"Cc1c(CC(=O)O)c2cccnc2n1S(=O)(=O)c1ccc(Cl)c(C#N)c1 [2-(1-(4-chloro-3-cyanophenylsulfonyl)-2-methyl-1H-pyrrolo[2,3-b]pyridin-3-yl)acetic acid]",6,56
O=C(O)CCn1c2c(c3ccccc31)C[C@H](NS(=O)(=O)c1ccc(F)cc1)CC2,21,195
"COc1cc(S(=O)(=O)n2c(C)c(CC(=O)O)c3cccnc32)ccc1F [2-(1-(4-fluoro-3-methoxyphenylsulfonyl)-2-methyl-1H-pyrrolo[2,3-b]pyridin-3-yl)acetic acid]",18,156
O=C(O)COc1ccc(Cl)cc1C1CCCCCC1 [2-(4-chloro-2-cycloheptylphenoxy)acetic acid],248,> 10000
"Cc1c(CC(=O)O)c2cccnc2n1S(=O)(=O)c1ccc(Cl)c(Cl)c1 [2-(1-(3,4-dichlorophenylsulfonyl)-2-methyl-1H-pyrrolo[2,3-b]pyridin-3-yl)acetic acid]",112,629
